Legend:
[1] = system: intracellular Ca^2+ stores; assay: Ca2+ release from intracellular stores (FURA-2AM loaded cells); assay type: cell-based; design: key to Ca^2+ (Ca^2+ release from intracellular stores): a “+” denotes release; a “+/−” denotes inconclusive
From the text: (§1) As a non-limiting example, compounds 1272 and 1273 (set forth in Table 1) were synthesized starting from 3-bromoaniline, which upon condensation with hydroxylamine and chloral hydrate followed by concentrated sulfuric acid yielded an inseparable regioisomeric mixture of 4- and 6-bromo isatins. The addition of the two phenyl groups to the three position of the oxindole allowed easy chromatographic separation of the 4- and 6-bromo-3,3-diphenyloxindoles 1272 and 1273. Table 1 sets forth biological data for diaryloxindole compounds including, but not limited to 1272 and 1273. For Tables 1-14, Ca^2+ refers to Ca^2+ release from intracellular stores where a “+” denotes release and a “+/−” denotes inconclusive; eIF2α-P refers to phosphorylation of eIF2α measured by Western blot; SRB refers to the inhibitory concentration to reduce cell growth by 50% (IC50) for growth inhibition of A549 lung cancer cells; and n.d. is not determined.
(§2) Without intending to be bound by theory, the mechanism of action of translation initiation inhibitors is set forth in FIG. 1, and includes the depletion (complete or partial depletion) of intracellular calcium (Ca^2+) stores and phosphorylation of eIF2α. Compounds synthesized using the approaches described herein were screened for their ability to partially deplete intracellular Ca^2+ stores using FURA-2AM loaded cells (Benzaquen et al. (1995) Nature Medicine, 1:534, incorporated herein by reference in its entirety for all purposes). A limited subset of compounds were further screened for their ability to deplete endoplasmic reticulum (ER) Ca^2+. The Ca^2+ content of the ER was monitored using ER-targeted, Ca^2+ sensitive, recombinant proteins. These recombinant proteins emitted light by fluorescent resonance energy transfer (FRET) as a function of the Ca^2+ content of the medium. Such assays are previously described (Miyawaki, A.; Mizuno, H.; Llopis, J.; Tsien, R. Y.; Jalink, K. Cameleons as cytosolic and intra-organellar calcium probes, Oxford University Press: Oxford, London, 2001; pp 3-16, incorporated herein by reference in its entirety for all purposes). Compounds that depleted Ca^2+ were further evaluated for their ability to phosphorylate eIF2α. eIF2α phosphorylation was measured by Western blot analysis using the phospho-specific anti-eIF2α antibody, as previously described (Aktas et al. (1998) Proc. Natl. Acad. Sci. USA, 95:8280, incorporated herein by reference in its entirety for all purposes).

[2] = system: eIF2α; assay: eIF2α phosphorylation measured by Western blot; assay type: cell-based; conditions: for eIF2α-P (phosphorylation of eIF2α measured by Western blot): unit or reference not given
From the text: as §1, §2

[3] = system: A549 lung cancer cells; assay: SRB growth inhibition of A549 lung cancer cells; assay type: cell-based, human; conditions: A549 lung cancer cells; unit inferred; read-out: SRB (IC50 for growth inhibition of A549 lung cancer cells)

Row | SMILES | Ca^2+ (Ca^2+ release from intracellular stores) [1] | eIF2α-P (phosphorylation of eIF2α measured by Western blot) [2] | IC50 [3] | eIF2α phosphorylation (in words) [2]
1 | CCc1cccc2c1C(c1ccccc1)(c1ccccc1)C(=O)N2 [Compound 1270] | + | 1.68 | > 20 µM | –
2 | O=C1Nc2ccccc2C1(c1ccccc1)c1ccc(O)cc1 (stereo not shown) [Compound 1295] | + | 1.66 | 16 µM | –
3 | CC(C)(C)c1ccc(O)c(C2(c3ccc(F)cc3)C(=O)Nc3ccccc32)c1 (stereo not shown) [Compound 1210] | + | 1.86 | 4 µM | –
4 | O=C1Nc2ccccc2C1(c1ccccc1)c1cc(C2CCCC2)ccc1O (stereo not shown) [Compound 1289] | + | 6.49 | 3 µM | –
5 | CC(C)(C)c1ccc(O)c(C2(c3ccccc3)C(=O)Nc3cccc(Cl)c32)c1 (stereo not shown) [Compound 1209] | + | 2.08 | 8 µM | –
6 | O=C1Nc2ccccc2C1(c1ccccc1)c1ccc(O)c(C(F)(F)F)c1 (stereo not shown) [Compound 1242] | + | 2.72 | 14 µM | –
7 | COc1ccccc1C1(c2ccc(C(C)(C)C)cc2)C(=O)Nc2ccccc21 (stereo not shown) [Compound 1237] | + | 1.3 | 17 µM | –
8 | Cc1cc(C2(c3ccccc3)C(=O)Nc3ccccc32)c(NS(=O)(=O)Cc2ccccc2)cc1O (stereo not shown) [Compound 1405] | + | 1.84 | 4 µM | –
9 | COc1ccccc1C1(c2cc(C(C)(C)C)ccc2O)C(=O)Nc2ccccc21 (stereo not shown) [Compound 1226] | + | 2.22 | 3 µM | –
10 | CC(C)(C)c1ccc(O)c(C2(c3ccccc3)C(=O)Nc3ccc(N)cc32)c1 (stereo not shown) [Compound 1231] | + | 1.46 | 14 µM | –
11 | CCc1ccc2c(c1)C(c1ccccc1)(c1ccccc1)C(=O)N2 [Compound 1269] | + | 1.64 | > 20 µM | –
12 | CCCCCCCc1ccc(O)c(C2(c3ccccc3)C(=O)Nc3ccccc32)c1 (stereo not shown) [Compound 1279] | +/− | 3.49 | 3 µM | –
13 | CC(C)(C)c1cccc(C2(c3ccccc3)C(=O)Nc3ccccc32)c1 (stereo not shown) [Compound 1217] | + | 1.5 | 4 µM | –
14 | CC(C)(C)c1ccc(C2(c3ccccc3O)C(=O)Nc3ccccc32)cc1 (stereo not shown) [Compound 1239] | + | 1.88 | 8 µM | –
15 | COC(=O)c1ccc(Cl)c2c1NC(=O)C2(c1ccccc1)c1ccccc1 [Compound 1351] | +/− | 1.35 | > 20 µM | –
16 | C#CC1(c2cc(C(C)(C)C)ccc2O)C(=O)Nc2ccccc21 (stereo not shown) [Compound 1276] | + | 0.75 | 13 µM | –
17 | COC(=O)COc1ccc(C(C)(C)C)cc1C1(c2ccccc2)C(=O)Nc2ccccc21 (stereo not shown) [Compound 1402] | + | 3.94 | 9 µM | –

Row | SMILES | Ca^2+ (Ca^2+ release from intracellular stores) [1] | eIF2α-P (phosphorylation of eIF2α measured by Western blot) [2] | IC50 [3] | eIF2α phosphorylation (in words) [2]
18 | CC(C)(C)c1ccc(O)c(C2(c3ccccc3)C(=O)Nc3c(C(=O)O)ccc(Cl)c32)c1 (stereo not shown) [Compound 1418] | + | 7.47 | 16 µM | –
19 | Cc1cc(C2(c3ccccc3)C(=O)Nc3c(C(=O)O)cccc32)c(NC(=O)OCC2c3ccccc3-c3ccccc32)cc1O (stereo not shown) [Compound 1394] | + | 8.21 | 9 µM | –
20 | O=C1Nc2ccc(I)cc2C1(c1ccccc1)c1ccccc1 [Compound 1264] | + | 2.53 | 9 µM | –
21 | CCc1cccc2c1NC(=O)C2(c1ccccc1)c1cc(C(C)(C)C)ccc1O (stereo not shown) [Compound 1256] | + | 1.3 | 3 µM | –
22 | O=C1Nc2cc(Br)ccc2C1(c1ccccc1)c1ccccc1 [Compound 1273] | + | 1.72 | 6 µM | none of the compounds exhibited an increase in eIF2α phosphorylation relative to compound 1392
23 | CC(C)Cc1ccc(O)c(C2(c3ccccc3)C(=O)Nc3ccccc32)c1 (stereo not shown) [Compound 1281] | + | 7.94 | 3 µM | –
24 | CC(C)(C)c1ccc(O)c(C2(c3ccccc3)C(=O)Nc3ccc(Cl)cc32)c1 (stereo not shown) [Compound 1215] | +/− | 1.1 | 3 µM | –
25 | COc1ccc2c(c1)C(c1ccccc1)(c1cc(C(C)(C)C)ccc1O)C(=O)N2 (stereo not shown) [Compound 1214] | + | 1.62 | 6 µM | –
26 | Cc1cc(C2(c3ccccc3)C(=O)Nc3c(C(=O)O)cccc32)c(NS(C)(=O)=O)cc1O (stereo not shown) [Compound 1417] | + | 0.96 | > 20 µM | –
27 | CC(C)Cc1ccc(C2(c3ccccc3)C(=O)Nc3ccccc32)cc1 (stereo not shown) [Compound 1297] | + | 0.7 | 8 µM | –
28 | CC(C)(C)c1ccc(O)c(C2(c3ccccc3)C(=O)Nc3c(I)cccc32)c1 (stereo not shown) [Compound 1253] | + | 2.05 | 6 µM | –
29 | CCCCc1ccc(C2(c3ccccc3)C(=O)Nc3ccccc32)cc1 (stereo not shown) [Compound 1298] | +/− | 0.45 | 8 µM | –
30 | O=C1Nc2ccccc2C1(c1ccccc1)c1ccc(O)c(F)c1 (stereo not shown) [Compound 1244] | + | 1.38 | 12 µM | –
31 | Cc1ccc(O)c(C2(c3ccccc3)C(=O)Nc3ccccc32)c1 (stereo not shown) [Compound 1278] | + | 3.33 | 8 µM | –
32 | CCc1ccc2c(c1)NC(=O)C2(c1ccccc1)c1cc(C(C)(C)C)ccc1O (stereo not shown) [Compound 1258] | + | 3.13 | 4 µM | –
33 | Cc1cc(C2(c3ccccc3)C(=O)Nc3ccccc32)c(NS(=O)(=O)c2ccc(Br)cc2)cc1O (stereo not shown) [Compound 1591] | + | 3.30 | 3 µM | –
34 | CCCCCCc1ccc(O)c(C2(c3ccccc3)C(=O)Nc3ccccc32)c1 (stereo not shown) [Compound 1288] | + | 6.28 | 3 µM | –

— patent US8044089B2, “3-3-di-substituted-oxindoles as inhibitors of translation initiation” (President and Fellows of Harvard College, priority 2004, dated 2011)
